The values that follow come from publication PMC8885877, “STAT3 inhibition suppresses adaptive survival of ALK-rearranged lung cancer cells through transcriptional modulation of apoptosis” (NPJ Precision Oncology, 2022).

In this experiment the target is STAT3 (Homo sapiens, UniProt P40763). Briefly: Alpha-based competitive binding assay with biotinylated recombinant STAT3 and FITC-labeled phospho-Tyr peptide. The text has this: Alpha-based competitive binding assay with biotinylated recombinant STAT3 and FITC-labeled phospho-Tyr peptide on STAT3 | inhibited the binding of phospho-Tyr peptide to the SH2 domain of STAT3 in a concentration-dependent manner with IC50 values

Usually IC50 stands for the concentration at which inhibition is half-maximal.

Chain of STAT3 (P40763 2-770): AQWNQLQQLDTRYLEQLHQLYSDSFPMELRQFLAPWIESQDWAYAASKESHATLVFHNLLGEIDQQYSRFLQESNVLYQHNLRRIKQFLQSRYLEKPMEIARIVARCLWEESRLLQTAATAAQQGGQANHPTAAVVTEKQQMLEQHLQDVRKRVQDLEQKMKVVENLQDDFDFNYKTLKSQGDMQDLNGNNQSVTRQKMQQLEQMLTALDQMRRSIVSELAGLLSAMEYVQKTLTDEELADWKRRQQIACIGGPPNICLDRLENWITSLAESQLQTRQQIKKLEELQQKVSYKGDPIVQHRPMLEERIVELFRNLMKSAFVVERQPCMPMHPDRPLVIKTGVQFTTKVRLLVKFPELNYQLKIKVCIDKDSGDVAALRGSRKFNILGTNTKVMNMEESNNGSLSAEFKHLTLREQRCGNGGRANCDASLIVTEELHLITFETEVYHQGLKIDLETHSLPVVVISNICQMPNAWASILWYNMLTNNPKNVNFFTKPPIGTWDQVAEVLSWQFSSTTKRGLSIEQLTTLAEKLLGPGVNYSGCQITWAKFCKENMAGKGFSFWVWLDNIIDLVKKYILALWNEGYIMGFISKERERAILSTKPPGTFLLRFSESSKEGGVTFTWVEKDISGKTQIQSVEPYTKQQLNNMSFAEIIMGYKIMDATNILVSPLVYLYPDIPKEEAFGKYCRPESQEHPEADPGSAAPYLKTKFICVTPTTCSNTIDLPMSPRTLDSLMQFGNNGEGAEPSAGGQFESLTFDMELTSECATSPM

For YHO-1701, the IC50 turned out to be 2.5 µM.
